For one molecule, EC50 results are on record in patent US7696167B2, “Cyclic peptide compound” (Astellas Pharma Inc., priority 2004, dated 2010).

The test relates to HCV replicon. Type of test: cell-based, hepatitis C virus. The settings on record: HCV replicon cells, two days with compound, replicon RNA corrected by GAPDH; read-out: HCV replicon inhibitory activity: EC50. On the procedure:
The inhibitory activity against the replication of HCV replicon was evaluated by determining the amount of replicon RNA, purified from cell lysate with a conventional column method, using real-time RT-PCR based on Taq-Man chemistry. The assay was carried out with the modified method reported by Lohmann et al., Science 285: 100 (1999) and Takeuchi et al., Gastroenterology 116: 636-642 (1999). The details thereof are described in the following.
7.5×10^3 HCV replicon cells in 0.1 ml of D-MEM medium containing 5% fetal bovine serum and 300 μg/ml of G418 (Kishine et al., B.B.R.C. 293: 993-999 (2002)) were seeded in each well of a 96-well microtiter plate (Corning Inc.). After the plate was incubated at 37° C. for 16 hours in 5% CO2, the medium was replaced with the above-mentioned medium in which the test compound was dissolved. […]
RT-PCR was carried out by using the ABI PRISM 7900HT sequence detection system (Applied Biosystems Inc.), and the gene copy number of the HCV replicon RNA in each cell was determined. […]
As a further control for RNA recovery in each assay well, the copy number of cellular Glyceraldehyde-3-phosphate dehydrogenase (GAPDH) mRNA was quantified by real-time RT-PCR with specific primer set and probe (all of these were produced by Takara Shuzo Co., Ltd.) as described above (part3) […]
In general terms: In antiviral work, replicon cells carry a viral genome segment that copies itself.

The EC50 is the concentration needed to bring the measured effect to its halfway point.

Some results are limits rather than exact numbers.

On to `C/C=C/C[C@@H](C)[C@@H](O)[C@H]1C(=O)N[C@@H]([C@@H](C)O)C(=O)N(C)CC(=O)N(C)[C@@H](CC(C)C)C(=O)N[C@@H](CC(C)C)C(=O)N(C)[C@@H](CC(C)C)C(=O)N[C@@H](C)C(=O)N[C@H](C)C(=O)N(C)[C@@H](C[C@H](C)CO)C(=O)N[C@@H](CC(C)C)C(=O)N(C)[C@@H](C(C)C)C(=O)N1C` [(2)], for which the concentration for a half-maximal effect (EC50) is less than 3000 nM.
